Results as given in EP4790046A1, “NOVEL COMPOUND DERIVED FROM MYRISTICA FRAGRANS, AND ANTICANCER COMPOSITION COMPRISING SAME” (Korea Institute of Science and Technology, priority 2023, dated 2025).

Assays:
MiaPaCa-2 = experiment: alamarBlue cell viability (survival rate), MiaPaCa-2; format: cell-based; conditions: Homo sapiens, MIA PaCa-2; MiaPaCa-2 (pancreatic cancer), compound 10 µM, 48 hours; read-out: Cancer cell line survival rate (%)
Source text: (§1) A p-value < 0.05 was considered statistically significant.

23132/87 = experiment: alamarBlue cell viability (survival rate, IC50), 23132/87; format: cell-based; conditions: 23132/87 (gastric cancer), compound 10 µM, 48 hours; read-out: Cancer cell line survival rate (%)
Source text: as §1

SNU-C5 = experiment: alamarBlue cell viability (survival rate, IC50), SNU-C5; format: cell-based; conditions: SNU-C5 (colorectal cancer), compound 10 µM, 48 hours; read-out: Cancer cell line survival rate (%)
Source text: as §1

HepG2 = experiment: alamarBlue cell viability (survival rate), HepG2; format: cell-based; conditions: Homo sapiens; HepG2 (liver cancer), compound 10 µM, 48 hours; read-out: Cancer cell line survival rate (%)
Source text: as §1

AGS = experiment: alamarBlue cell viability (survival rate, IC50), AGS; format: cell-based; conditions: Homo sapiens; AGS (gastric cancer), compound 10 µM, 48 hours; read-out: Cancer cell line survival rate (%)
Source text: as §1

SW48 = experiment: alamarBlue cell viability (survival rate, IC50), SW48; format: cell-based; conditions: Homo sapiens; SW48 (colorectal cancer), compound 10 µM, 48 hours; read-out: Cancer cell line survival rate (%)
Source text: as §1

SNU-81 = experiment: alamarBlue cell viability (survival rate, IC50), SNU-81; format: cell-based; conditions: SNU-81 (colorectal cancer), compound 10 µM, 48 hours; read-out: Cancer cell line survival rate (%)
Source text: as §1

SNU466 = experiment: alamarBlue cell viability (survival rate), SNU466; format: cell-based; conditions: SNU466 (glioblastoma), compound 10 µM, 48 hours; read-out: Cancer cell line survival rate (%)
Source text: as §1

SNU-719 = experiment: alamarBlue cell viability (survival rate, IC50), SNU-719; format: cell-based; conditions: SNU-719 (gastric cancer), compound 10 µM, 48 hours; read-out: Cancer cell line survival rate (%)
Source text: as §1

[1] = test system: various cancer cell lines; experiment: alamarBlue cell viability, statements across the cell line panel; conditions: various cancer cell lines
Description: AGS, SW48, HepG2, and MiaPaCa-2 was purchased from ATCC (American Type Culture Collection, USA), SNU cell lines from the Korean Cell Line Bank (KCLB, Korea), and 23132/87 from the Leibniz Institute DSMZ - German Collection of Microorganisms and Cell Cultures GmbH (DSMZ, Germany). All cell lines were cultured in RPMI-1640 medium (HyClone, USA) supplemented with 10% FBS (Gibco, USA) and 1% penicillin-streptomycin (HyClone, USA) under conditions of 5% CO2, 37°C.
Cells were seeded at a density of 5 × 10^3cells/well in a 96-well plate for 24 hours, then treated with the compound at an appropriate concentration (10 µM) for 48 hours. After treatment, alamarBlue reagent was added at a volume ratio of 1/10 of the treatment volume and incubated for 4 hours in a 37°C cell incubator (protected from direct light). Cell viability was then determined by measuring absorbance values at 570 nm and 600 nm using a microplate reader. The anticancer effects of candidate compounds were evaluated by assessing the cell viability (%) of cells treated at specific concentrations and the half-maximal inhibitory concentration (IC50) of each natural product. Doxorubicin and oxaliplatin were used as positive controls for gastric and colorectal cancer, respectively.
Statistical analysis was performed using R software (version 4.2.2) (R Core Team). Differences between groups were assessed using student's t-test or 1-way ANOVA followed by post-hoc Tukey HSD test. A p-value < 0.05 was considered statistically significant.
Further, to measure the IC50 values against six cancer cell lines.

SNU201 = experiment: alamarBlue cell viability (survival rate), SNU201; format: cell-based; conditions: SNU201 (glioblastoma), compound 10 µM, 48 hours; read-out: Cancer cell line survival rate (%)
Source text: as §1

Row | Compound | viability at 10 µM (MiaPaCa-2) [%] | viability at 10 µM (23132/87) [%] | viability at 10 µM (SNU-C5) [%] | viability at 10 µM (HepG2) [%] | viability at 10 µM (AGS) [%] | viability at 10 µM (SW48) [%] | viability at 10 µM (SNU-81) [%] | viability at 10 µM (SNU466) [%] | viability at 10 µM (SNU-719) [%] | anticancer activity [1] | viability at 10 µM (SNU201) [%]
1 | COc1cc(CC(C)C(C)C(c2ccc(O)c(OC)c2)c2ccc(O)c(C(=O)CCCCCCCCc3ccc(O)c(O)c3)c2O)ccc1O (stereo not drawn) [Compound 15, Myricone P] | 4.32 | 1.45 | 2.62 | 3.18 | 8.49 | 3.93 | 6.63 | 0.99 | 2.14 | high anticancer activity | 31.4
2 | COc1cc([C@H]2Oc3c(OC)cc(/C=C/Cc4cc(O)c(O)cc4CCCCCCCCC(=O)c4c(O)cccc4O)cc3[C@@H]2C)ccc1O [Compound 17, Myricone Q] | 59.9 | 85 | 58.5 | 108 | 80.5 | 60.2 | 113 | 45.6 | 54.9 | high anticancer activity | 105
3 | COc1ccc(/C=C/Cc2ccc(O)c(C(=O)CCCCCCCCc3ccc(O)c(O)c3)c2O)cc1OC [Compound 21, Myricone Z] | 7.58 | 2.4 | 6.53 | 6.05 | 6.86 | 3.51 | 33.6 | 0.95 | 4.6 | high anticancer activity | 67.8
